Data from patent publication US20240133870A1, “COMBINED TREATMENT FOR CANCER” (Yeda Research and Development Co. Ltd., priority 2021, published 2024).

What was measured:
Type in all cases: cell-based, human
[1] = tested on: HT-29 orthotopic xenograft colorectal tumors; assay: EVOC of orthotopic colon tumors, pERK and H&E/BrDu; settings: lapatinib 4 μM combined with BRAFi (vemurafenib 4 μM)
Source text: 500-700 μmm^3 tumors were resected, sliced, and cultured ex-vivo. Following 4 days of drug treatment, slices were fixed and embedded in paraffin blocks. FFPE slices were stained by H&E, and the percentage of viable cancer cells was morphologically assessed on H&E stained sections by a pathologist as the ratio between viable cancer cell area and total cancer area (viable cancer cells plus necrotic cancer cells). […] Each black dot in a given treatment condition represents a different tumor. P-values were calculated by two-sided t-test. *** P<0.001 ** P<0.01. Error bars represent standard error. […] Names of the six secreted factors with the highest rScore are shown. Factors related to TNF pathways are marked in gray. Results represent the average of at least two experiments. […] Cohort size pre-treatment: 5-6, P-values of the difference on the last day of experiment were calculated by one-sided Mann-Whitney test. * P<0.05. […] Viability percentage was calculated based on the entire field of view per treatment combination. […] FFPE slices were stained by pERK and pERK activity was assessed by a pathologist. […]
For the ex-vivo experiments EVOCs from immunocompromised mice bearing human tumors were generated, as further described hereinbelow. For the in-vivo validation experiments, mice bearing subcutaneous tumors were used; and response was measured by evaluating tumor volume. […]

H1975 xenografts = assay: EVOC viability; settings: afatinib 3-4 μM
Description: Vehicle—DMSO, FGFRi—AZD4547 2-4 μM, INSRi—linsitinib 2 μM, METi—crizotinib 2-4 μM, EGFRi—afatinib 3-4 μM. Each black dot in a given treatment condition represents a different tumor. P-values were calculated by two-sided t-test. ** P<0.01, * P<0.05. Error bars represent standard error. […] Viability percentage is given per treatment combination. Scale bar represents 50 μm. […] Error bars represent standard error. […] EGFRi—gefitinib 1.6 μM, FGFRi—AZD4547 0.2 μM. The percentage of viable cancer cells was morphologically assessed on H&E stained sections by a pathologist as the ratio between viable cancer cell area and total cancer area (viable cancer cells plus necrotic cancer cells). […] Viability score was calculated based on the entire field of view. […]
Immunohistochemistry of EVOC tissues: To assess response therapy, 4 μm FFPE tissue slices were stained with H&E, or with specific antibodies: anti-pERK (Cell Signaling, #4370) followed by HRP conjugated secondary antibody (anti-Rabbit HRP, ZUC032, ZytoChem) and DAB staining (DAB substrate kit, DAB057, ZytoChem). […] All slides were scanned using the Pannoramic SCAN II (3[sequence]) and analyzed by a pathologist. The percentage of viable cancer cells was morphologically assessed on H&E stained sections by a pathologist as the ratio between viable cancer cell area and total cancer area (viable cancer cells plus necrotic cancer cells).

pERK in G361 cell line = assay: In-cell western blot of pERK; settings: G361 cells treated with the BRAF inhibitor (vemurafenib 2 μM and trametinib 1 nM)
Description: PLX4720—BRAFi, 2 μM; PD184352—MEKi, 1 μM, EMAPII—50 ng/ml. P-value of the difference between GFP(drug)/GFP(no-treatment) and GFP(drug+EMAPII)/GFP(no-treatment), at day 7, was calculated by two-sided t-test. ** p<0.01, *** p<0.001. Average rScore (+/−SE) was calculated from at least four different experiments. […] A total of 69 experiments are shown. […] The effect of FGF2 (10 ng/ml), EMAPII (10 ng/ml) or AIMP1 (10 ng/ml) on G361 μmelanoma cells treated with vemurafenib (2 μM) was measured with or without the FGFR inhibitor PD17307 (0.5 μM). Data represent an average of 4 to 8 experiments. P-value was calculated by two-sided t-test. *** p<0.001. Error bars represent standard error. […] P-values were calculated by two-sided t-test relative to luciferase. * p<0.05, Q-value=0.1. […] P-value was calculated by two-sided t-test. *** p<0.001.
In-cell western blot—To validate that EMAPII mediates its effect on resistance to BRAF inhibition via the FGF receptors (FIG. 2G), the melanoma BRAF mutated cell line G361 was seeded in a 384-wells plate at a concentration of 16,000 cells per well. […] Finally, the plate was scanned with Odyssey (Li-cor) using microplate settings (169 μm, […]), and fluorescence intensity was quantified and normalized to the DRAQ level, and then to no drug control (DMSO).

[2] = tested on: BRAF (V600E) melanoma cell lines; assay: High-throughput secretome screen of GFP-labeled cells (rScore, bScore, ranks); settings: G361 and SK-MEL-5; PLX4720 2 μM, PD184352 1 μM, EMAPII 50 ng/ml
Description: Cell lines—All cell lines (Table 1 hereinbelow) were cultured in DMEM supplemented with 100 units/ml Penicillin and Streptomycin, 2 μmM Glutamine, 1 μmM Pyruvate and 10% FCS, and maintained in a humidified incubator at 37° C. and 5% CO2. Cells were routinely tested for Mycoplasma contamination by PCR. To generate stable cell lines constitutively expressing GFP, cells were infected with lentivirus bearing plasmid pLEX_TRC206 and sorted by FACS to enrich for GFP positive population. For the in-vitro experiments, human cancer cell lines which constitutively expressed GFP were treated with various cytotoxic and targeted drugs (see Table 1 hereinbelow); and the effect of different secreted factors (Table 2 hereinbelow) on the innate resistance to a drug based on the cells' GFP level was determined.
High throughput in-vitro screens—For high-throughput screens or drug dose curves, cells were counted by Vi-Cell XR (Beckman coulter). Cells were seeded on 384 wells plates (Corning, 3712) using the EL406 washer dispenser (BioTek). Liquid handling of medium and drugs was effected by CyBi (WellFlex vario, CyBio). GFP fluorescence of cells was measured at 477/517 nm (excitation/emission) using Cytation3 (BioTek). Due to fluorescence reading bias at plate margins and corners, these margins were discarded for analysis.
High-throughput secretome screens—To screen for the effect of secreted factors on the response of cell lines to different drugs, the following seven-days procedure was performed. On day 0, GFP expressing cells were seeded at 1500-2000 cells per well on 384-wells plates (Corning, 3712), depending on the cell line's proliferation rate. Each plate was seeded with one cell line. At day 1, each plate was treated with the secretome library (Table 2 hereinabove), one well per factor. Immediately afterwards, each plate was treated either with a drug (Table 1 hereinabove) at the EC90 concentration or with DMSO control. The CyBi liquid handler was used to treat each plate with a drug and the secretome library as well as to replace the medium, drug and secreted factors following 3 days of incubation (day 4). Cell fluorescence was read at days 1, 4 and 7 by Cytation3, and for some of the experiments at day 6 as well. Wells of interest were imaged at day 7 using the Operetta (PerkinElmer).
(2) Based on observations, the plate area spanning rows 4-13 and columns 4-21 was hardly affected by plate margins biases. This area is referred to herein as plate core. To control for row specific and column specific biases, plate outliers (Zscore>4 or Zscore<−4) and edges were masked. Next, to capture row and column (col) biases for the i-th row and the j-th column, the bias factor was calculated:
Upon QC completion, 199 experiment plates and 79 control (DMSO) plates were left for further analysis. • 4—Scoring methods-A GFP value for wells without secretome factors was obtained by averaging over the plate internal control wells. Those wells contained the solvents used in the secretome library. pScore: The effect of the secreted factors on proliferation under DMSO was evaluated using pScore (proliferation score). Values were given in percent units.
rScore: The effect of the secreted factors on resistance to anti-cancer drugs was evaluated using rScore (rescue score). rScore was assigned to a given factor under two conditions: • 1. drug effect was >30% (residual drug growth<0.7) • 2. proliferation ratio between factor treated and untreated cells in the presence of drug was higher than one:
rSscore=S−S*residual drug growth
Based on manual inspection of the rScore distribution across the data, the threshold for a potential effect on drug resistance was set to 0.2 (FIGS. 8A-D).
(*) Negative values were considered as zero. […] Groups with less than 4 experiments were discarded, finally resulting in 13 groups of experiments (FIG. 1E). […]

Q: Which “downstream pERK signaling” value [1] does the source give for `CS(=O)(=O)CCNCc1ccc(-c2ccc3ncnc(Nc4ccc(OCc5cccc(F)c5)c(Cl)c4)c3c2)o1` [lapatinib] here?
A: The value was “completely blocked pERK signaling”.

Q: How did the “decrease of viability of cancer cells, on average” value (H1975 xenografts) turn out when `CN(C)C/C=C/C(=O)Nc1cc2c(Nc3ccc(F)c(Cl)c3)ncnc2cc1O[C@H]1CCOC1` [afatinib] was run?
A: Its value is 28%.

B1: EMAPII: endothelial-monocyte activating polypeptide II, C-terminus variant of AIMP1 (protein, UniProt Q12904 147-312, looked up)
Endothelial …: SKPIDVSRLDLRIGCIITARKHPDADSLYVEEVDVGEIAPRTVVSGLVNHVPLEQMQNRMVILLCNLKPAKMRGVLSQAMVMCASSPEKIEILAPPNGSVPGDRITFDAFPGEPDKELNPKKKIWEQIQPDLHTNDECVATYKGVPFEVKGKGVCRAQTMSNSGIK
modifications: Endothelial monocyte-activating polypeptide 2
Q: Which results are given for B1?
A: pERK reactivation (pERK in G361 cell line): partially reactivate pERK; effect on sensitivity to BRAF/MEK inhibition [2]: conferred resistance to BRAF and MEK inhibition
